Measured values: article PMC4867616, “Imaging of Cerebral Amyloid Angiopathy with Bivalent ^99mTc-Hydroxamamide Complexes” (Scientific Reports, 2016)

Target: T1, Aβ depositions in human CAA brain sections (Homo sapiens, UniProt P05067)
T1 construct: consistent with the immunohistochemical staining pattern observed in the same brain sections with anti-Aβ(1–40) antibody; from tissue; host or cells: post-mortem human brain, autopsy-confirmed CAA cases
Assay: In vitro autoradiography of human CAA brain sections
Format: binding
Conditions: for Labeling of Aβ depositions in brain sections from another patient with CAA: patient with CAA (person)
Procedure: (§1) Six micrometer thick serial human brain sections of paraffin-embedded blocks were used for autoradiography. To completely deparaffinize the sections, they were incubated in xylene for 30 min two times and in 100% EtOH for 1 min two times. Subsequently, they were subjected to 1-min incubation in 90% EtOH and 1-min incubation in 70% EtOH, followed by a 5-min wash in water. Each slide was incubated with a 50% EtOH solution of [^99mTc]SB2A or [^99mTc]BT2B (370 kBq/mL) at room temperature for 1 h. […] The sections were washed in 50% EtOH for 3 min two times and exposed to a BAS imaging plate (Fuji Film, Tokyo, Japan) for 2 h. Autoradiographic images were obtained using a BAS5000 scanner system (Fuji Film). After autoradiographic examination, the same sections were immunostained by an antibody against Aβ(1–40) to confirm the presence of Aβ depositions. For immunohistochemical staining of Aβ(1–40), the sections were autoclaved for 15 min in 0.01 M citric acid buffer (pH 6.0) to activate the antigen. After three 5-min incubations in PBS-Tween 20 (PBST), they were incubated with anti-Aβ(1–40) primary antibody (BA27; Wako, Osaka, Japan) at room temperature overnight. Subsequently, they were incubated in PBST for 5 min three times, and incubated with biotinylated goat anti-mouse IgG (Wako) at room temperature for 3 h. After three 5-min incubations in PBST, the sections were incubated with Streptavidin-Peroxidase complex at room temperature for 30 min. After three 5-min incubations in PBST, they were incubated with diaminobenzidine (Merck, Hesse, Germany) as a chromogen for 5 min. After washing with water, the sections were observed under a microscope (BIOREVO BZ-9000; Keyence Corp., Osaka, Japan).
as §1, with “In vitro autoradiography of human CAA brain sections. Postmortem brain tissues from autopsy-confirmed cases of CAA (person, and person) and a control (person) were obtained from the Graduate School of Medicine, Kyoto University, National Cerebral and Cardiovascular Center, and BioChain Institute Inc. (California, USA), respectively. Experiments were performed according to the regulations of the ethics committee of Kyoto University. Six” for “Six”, “serial” for “serial human brain”, “Aβ(1-40)” for “Aβ(1–40)”, “Aβ(1-40),” for “Aβ(1–40),”, “anti-Aβ(1-40)” for “anti-Aβ(1–40)”, “After three 5-min incubations in PBST, the sections were incubated with Streptavidin-Peroxidase complex at room temperature for 30 min. After three 5-min incubations in PBST, they were incubated with diaminobenzidine (Merck, Hesse, Germany) as a chromogen for 5 min. After washing with water, the sections were observed under a microscope (BIOREVO BZ-9000; Keyence Corp., Osaka, Japan).” left out

T1 sequence (P05067 672-711 limits assumed): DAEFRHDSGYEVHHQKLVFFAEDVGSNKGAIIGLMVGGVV

Blocking of labeling of Aβ depositions with excess nonradioactive PIB (adjacent CAA brain section, PIB 1.0 mM) | Accumulation of radioactivity in control brain sections (autoradiography) (brain section from a healthy control (person)) | Labeling of Aβ depositions in CAA brain sections (autoradiography) (brain section from a patient with CAA (person), 370 kBq/mL, 1 h) | Labeling of Aβ depositions in brain sections from another patient with CAA | Compound
blocked to a large extent | almost no accumulation of radioactivity | intensively labeled Aβ depositions | intensively labeled Aβ depositions | CN(C)c1ccc(/C=C/c2ccc(C3=N[O][99Tc-]4(=[O])([NH]3)[NH2+]C(c3ccc(/C=C/c5ccc(N(C)C)cc5)cc3)=N[O]4)cc2)cc1 (single isomer, unassigned) [[^99mTc]SB2A]
– | – | – | intensively labeled Aβ depositions | CN(C)c1ccc(-c2nc3ccc(C4=N[O][99Tc-]5(=[O])([NH]4)[NH2+]C(c4ccc6nc(-c7ccc(N(C)C)cc7)sc6c4)=N[O]5)cc3s2)cc1 [[^99mTc]BT2B]
